The text below walks through data of ChEMBL document CHEMBL1201862, “PubChem BioAssay data set” (2004).

Among the test systems are COLO 205; MDA-MB-435; LOX IMVI; HCC 2998; A498; PC-3; SF-295; M14; NCI-H522; SNB-19; SK-MEL-5; OVCAR-8; SF-539; MDA-N; HOP-62; HOP-92; UACC-62; OVCAR-3; Malme-3M; OVCAR-4.
Common to all, as to assay: inhibition of tumour cell growth, NCI panel, 48 h

The structures appear in SMILES notation.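 Dose response: 5 concentrations. Exposure: 48 h. Format: 96-well plates. Endpoint: linear interpolation; highest concentration if not reached. The concentration for 50% growth inhibition is given as GI50.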 Calls of active or inactive are those of the source. Cut-off read from the data, not from the text of the source: active = GI50 up to about 1.1 µM and inactive = higher. Some results are limits rather than exact numbers.

For the molecule `CC(C)(C)OC(=O)NC(Cc1ccc(OC(C)(C)C)cc1)C(=O)N[C@H]1CC[C@H](C(=O)O)C1` (stereo not given in full), the GI50 with COLO 205 is > 100 µM (inactive); in the assay with MDA-MB-435, > 100 µM (inactive); with LOX IMVI, > 100 µM (inactive); in the assay on HCC 2998, > 100 µM (inactive); in the assay with A498, > 100 µM (inactive); in the assay on PC-3 it was 89.1 µM (inactive). For the same molecule, the GI50 in the assay on SF-295, in the assay on M14, in the assay with NCI-H522, in the assay with SNB-19, in the assay with SK-MEL-5 and with OVCAR-8 was > 100 µM (inactive) each time. Moreover, the GI50 in the assay on SF-539, with MDA-N and with HOP-62 was > 100 µM (inactive) in each case.
Regarding `O=C(CCc1ccc(O)c(O)c1)NCCc1cc(O)cc(O)c1`, the GI50 in the assay with HOP-92 was > 100 µM (inactive); in the assay with COLO 205, > 100 µM (inactive); in the assay on MDA-MB-435, 24.8 µM (inactive); with LOX IMVI, 46 µM (inactive); in the assay with UACC-62, > 100 µM (inactive); in the assay with HCC 2998, > 100 µM (inactive). For the same molecule, the GI50 with A498 is > 100 µM (inactive); with PC-3, > 100 µM (inactive); in the assay on SF-295 it was > 100 µM (inactive); with M14, > 100 µM (inactive); in the assay with NCI-H522 it was 71 µM (inactive); in the assay on SNB-19 it was > 100 µM (inactive). The GI50 with SK-MEL-5 is > 100 µM (inactive); in the assay with OVCAR-8, > 100 µM (inactive); in the assay with SF-539, > 100 µM (inactive); with MDA-N, 23.8 µM (inactive); in the assay with HOP-62, > 100 µM (inactive); in the assay with OVCAR-3, > 100 µM (inactive).
Take `CCOP(=O)(Cc1nc(C#N)c(N)o1)OCC`: the GI50 in the assay with HOP-92, in the assay on COLO 205, with MDA-MB-435, in the assay on LOX IMVI, in the assay on UACC-62 and in the assay on HCC 2998 was > 100 µM (inactive) throughout. Besides, the GI50 with A498, in the assay on PC-3, with SF-295, with NCI-H522, in the assay with SNB-19 and in the assay with SK-MEL-5 was > 100 µM (inactive) throughout. The GI50 in the assay on Malme-3M, in the assay with MDA-N, in the assay with HOP-62, in the assay on OVCAR-3 and in the assay with OVCAR-4 was > 100 µM (inactive) in each case.
`CC(=O)O[C@H]1CC[C@H]2[C@@H]3CCC4=CC(=O)C=C[C@]4(O)[C@H]3CC[C@]12C`: the GI50 in the assay on HOP-92 was 23.9 µM (inactive); in the assay on COLO 205 it was 22.4 µM (inactive); with MDA-MB-435, 16.4 µM (inactive); with LOX IMVI, 12.9 µM (inactive); in the assay on UACC-62, 42.3 µM (inactive); in the assay on HCC 2998, 45.1 µM (inactive). Also, the GI50 with A498 was 42.8 µM (inactive); in the assay with PC-3, 30.1 µM (inactive); in the assay with SF-295 it was 16.6 µM (inactive); with M14 it was 32.1 µM (inactive); with SNB-19, 71.6 µM (inactive); in the assay with SK-MEL-5 it was 4.6 µM (inactive). Moreover, the GI50 in the assay on OVCAR-8 is 19.1 µM (inactive); in the assay on SF-539, 31.3 µM (inactive); in the assay on MDA-N, 29.9 µM (inactive); in the assay with HOP-62, > 100 µM (inactive); in the assay with OVCAR-3, 42.1 µM (inactive); with OVCAR-4, > 48.9 µM (inactive).
With `CC(C)=CCC[C@](C)(O[C@@H]1O[C@H](CO)[C@@H](O)[C@H](O)[C@H]1O)[C@H]1CC[C@]2(C)[C@@H]1[C@H](O)C[C@@H]1[C@@]3(C)CC[C@@H](O)C(C)(C)[C@@H]3[C@@H](O[C@@H]3O[C@H](CO)[C@@H](O)[C@H](O)[C@H]3O)C[C@]12C.C[C@@H]1O[C@@H](O[C@H]2[C@H](O[C@H]3C[C@]4(C)[C@H](C[C@H](O)[C@@H]5[C@@H]([C@@]6(C)CC[C@H](C(C)(C)O)O6)CC[C@]54C)[C@@]4(C)CC[C@H](O)C(C)(C)[C@H]34)O[C@H](CO)[C@@H](O)[C@@H]2O)[C@H](O)[C@H](O)[C@H]1O`, the GI50 in the assay with HOP-92, in the assay with COLO 205, in the assay on MDA-MB-435, with LOX IMVI, with UACC-62 and with HCC 2998 was > 100 µM (inactive) each time. Besides, the GI50 with A498, with PC-3, with SF-295, in the assay on M14, in the assay with NCI-H522 and with SNB-19 was > 100 µM (inactive) in each case. In addition, the GI50 in the assay on SK-MEL-5 is > 100 µM (inactive); in the assay on OVCAR-8, > 100 µM (inactive); in the assay on SF-539, > 100 µM (inactive); in the assay on MDA-N it was > 100 µM (inactive); in the assay on HOP-62 it was > 100 µM (inactive); in the assay on OVCAR-3, 24.9 µM (inactive). For the same molecule, the GI50 in the assay on OVCAR-4 is > 100 µM (inactive).
As to `CSc1cc(Cl)c(C)cc1S(=O)(=O)NC(=O)NNc1ccc(C)cc1`, the GI50 in the assay with COLO 205 was > 100 µM (inactive); in the assay with MDA-MB-435 it was > 100 µM (inactive); with LOX IMVI, > 100 µM (inactive); in the assay with HCC 2998 it was 22.2 µM (inactive); in the assay with A498, > 100 µM (inactive); in the assay on PC-3, 43.5 µM (inactive). Besides, the GI50 in the assay with SF-295, in the assay with M14, in the assay with NCI-H522, in the assay with SNB-19, in the assay with SK-MEL-5 and in the assay on OVCAR-8 was > 100 µM (inactive) throughout. Besides, the GI50 in the assay on Malme-3M, with SF-539, in the assay with MDA-N, with HOP-62, with OVCAR-3 and with OVCAR-4 was > 100 µM (inactive) throughout.
On to `CC(=O)O[C@H]1C[C@H]2[C@@H]([C@H](OC(C)=O)C[C@@H]3CC4(CC[C@@]32C)OOC2(CCCCC2)OO4)[C@@H]2CC[C@H]([C@H](C)CCC(N)=O)[C@@]12C`, for which the GI50 in the assay with COLO 205 is 1.91 µM (inactive); in the assay on MDA-MB-435 it was 1.65 µM (inactive); in the assay on LOX IMVI, 1 µM (active); with UACC-62, 2.7 µM (inactive); in the assay on HCC 2998 it was 3.63 µM (inactive); in the assay on A498 it was 6.64 µM (inactive). Moreover, the GI50 with PC-3 was 1.62 µM (inactive); in the assay with SF-295 it was 3.67 µM (inactive); with M14 it was 3.33 µM (inactive); with NCI-H522, 0.55 µM (active); in the assay on SNB-19, 5.85 µM (inactive); with SK-MEL-5, 2.15 µM (inactive). In addition, the GI50 with OVCAR-8 was 2.14 µM (inactive); in the assay on Malme-3M it was 2.76 µM (inactive); with SF-539, 3.13 µM (inactive); in the assay on MDA-N, 1.95 µM (inactive); in the assay on HOP-62, 0.817 µM (active); with OVCAR-3, 1.54 µM (inactive). Further, the GI50 with OVCAR-4 is 1.78 µM (inactive).
Take `COC(=O)[C@H](COC(=O)/C=C/c1ccc(OC(C)=O)c(OC(C)=O)c1)NC(=O)/C=C/c1ccc(OC(C)=O)c(OC(C)=O)c1`: the GI50 with HOP-92 is 22.2 µM (inactive); with COLO 205, 18.5 µM (inactive); in the assay with MDA-MB-435, 19.4 µM (inactive); in the assay on LOX IMVI it was 18.4 µM (inactive); in the assay on UACC-62 it was 15 µM (inactive); with HCC 2998 it was 17.6 µM (inactive). The GI50 in the assay on A498 was 39.3 µM (inactive); in the assay with PC-3, 15 µM (inactive); in the assay with M14, 21.2 µM (inactive); with SNB-19 it was 15.8 µM (inactive); with SK-MEL-5 it was 16.4 µM (inactive); with OVCAR-8, 27.7 µM (inactive). Moreover, the GI50 in the assay with Malme-3M was 5.09 µM (inactive); in the assay with SF-539, 45.1 µM (inactive); in the assay on MDA-N, 17.1 µM (inactive); with HOP-62 it was 17.2 µM (inactive); in the assay on OVCAR-3, 16.4 µM (inactive); with OVCAR-4, 17.4 µM (inactive).
With `O=C1C=CC(=O)c2c1cc([N+](=O)[O-])c1ccoc21`, the GI50 in the assay with HOP-92 is 1.96 µM (inactive); with COLO 205, 2.49 µM (inactive); in the assay on MDA-MB-435, 11.7 µM (inactive); in the assay on LOX IMVI, 9.66 µM (inactive); in the assay on UACC-62 it was 15.8 µM (inactive); with HCC 2998, 19.5 µM (inactive). For the same molecule, the GI50 in the assay with A498 is 15.5 µM (inactive); in the assay on PC-3 it was 15.6 µM (inactive); in the assay with SF-295, 19.1 µM (inactive); in the assay with M14 it was 6.17 µM (inactive); with NCI-H522, 2.07 µM (inactive); in the assay on SNB-19, 21.5 µM (inactive). In addition, the GI50 in the assay on SK-MEL-5 was 16.4 µM (inactive); with OVCAR-8, 26.2 µM (inactive); in the assay on SF-539, 27.2 µM (inactive); in the assay with MDA-N it was 17.1 µM (inactive); with HOP-62, 16.5 µM (inactive); in the assay on OVCAR-3 it was 11.5 µM (inactive). Further, the GI50 in the assay with OVCAR-4 was 18.9 µM (inactive).
For the molecule `O=c1c2c3c(sc2nc2n1sc1nc4sc5c(c4c(=O)n12)CCCC5)CCCC3`, the GI50 is 51.2 µM (inactive) with HOP-92; 26.6 µM (inactive) in the assay on COLO 205; 51.8 µM (inactive) in the assay on MDA-MB-435; > 79.4 µM (inactive) in the assay on LOX IMVI; 10.9 µM (inactive) in the assay on UACC-62; 36.1 µM (inactive) with HCC 2998. Further, the GI50 with A498 is > 100 µM (inactive); in the assay on PC-3 it was 54.5 µM (inactive); with SF-295, 64.6 µM (inactive); in the assay with M14, 98.2 µM (inactive); with NCI-H522, 10.8 µM (inactive); in the assay with SNB-19, 92.9 µM (inactive). The GI50 in the assay on SK-MEL-5 was > 100 µM (inactive); in the assay with OVCAR-8, 56.6 µM (inactive); with SF-539, 56 µM (inactive); in the assay on MDA-N, > 51.3 µM (inactive); with HOP-62, > 100 µM (inactive); in the assay with OVCAR-3 it was 24.2 µM (inactive). Also, in the assay on OVCAR-4, the GI50 was 18.7 µM (inactive).
